Consider 2 compounds from PMC11085308, “Design, Synthesis and Biological Activity of Novel Methoxy- and Hydroxy-Substituted N-Benzimidazole-Derived Carboxamides” (Molecules, 2024).

One series deals with E. coli efflux del. The series can be described thus: microbe, parasite or virus in culture. The class given is cell-based, Escherichia coli. Particulars: broth microdilution, 16–24 h at 37 °C; unit inferred. In general terms: Broth dilution looks for growth in wells or tubes with falling amounts of substance.
A short description of series [1]: Ferric reducing/antioxidant power (FRAP assay). More on the design: FRAP: unit not given here. Particulars: Fe2+ equivalents, triplicate.
The test system of another series is E. coli ATCC 25922. The series can be described thus: Antibacterial activity in vitro, broth microdilution MIC. Conditions: 16–24 h at 37 °C, unit inferred. The class given is cell-based, Escherichia coli.
Series [2] can be described thus: Solubility in water, seen as precipitation during incubation. The class given is physicochemical. Conditions: precipitation observed during the incubation period. The source says: Therefore, it is not clear whether the observed antiproliferative activity is due to the biological activity of the compounds or to precipitation.
Another series has as its system S. aureus ATCC 29213. The series can be described thus: Antibacterial activity in vitro, broth microdilution MIC. It is filed as cell-based, Staphylococcus aureus. Particulars: broth microdilution, 16–24 h at 37 °C; unit inferred.
In series [3] the test system is HCT 116 (colorectal carcinoma). The series can be described thus: Antiproliferative activity in vitro, MTT assay, 72 h. Conditions: Homo sapiens, 72 h incubation, '-' with footnote a = did not show biological activity due to precipitation. The class given is cell-based. (In general: Formazan colour is commonly taken as a measure of viable cells.)
Series [4] has as its system MCF-7 (human breast cancer). Described as above. Particulars: MCF7, 72 h incubation. It is filed as cell-based.
Another series deals with H460 (lung carcinoma). Described as above. It is filed as cell-based. Conditions: Homo sapiens, NCI-H460, 72 h incubation.
A further series relates to P. aeruginosa ATCC 27853. The series can be described thus: Antibacterial activity in vitro, broth microdilution MIC. The class given is cell-based. Particulars: 16–24 h at 37 °C, unit inferred.
The test system of the next series is A. baumannii ATCC 17978. The series is described as above. The class given is cell-based. Conditions: 16–24 h at 37 °C, unit inferred.
The next series deals with E. faecalis ATCC 29212. The series is described as above. Conditions: for Selectivity of antibacterial activity, in words: against the Gram-positive strain E. faecalis; for MIC E. faecalis ATCC 29212: broth microdilution, 16–24 h at 37 °C, unit inferred. The class given is cell-based.

≈ marks a conversion by molar mass, not a printed value.

As for `COc1ccc(C(=O)Nc2nc3ccccc3[nH]2)c(O)c1` [Compound 7, N-(1H-benzo[d]imidazol-2-yl)-2-hydroxy-4-methoxybenzamide], in the series with E. coli efflux del., the MIC E. coli efflux del. was over 64 µM. For the same compound, the FRAP in [1] amounted to 387.28 ± 7.56. In the series with E. coli ATCC 25922, this compound returned an MIC E. coli ATCC 25922 of over 64 µM. In addition, the Solubility in water result in [2] is listed as “low solubility in water”. The same compound displayed an MIC S. aureus ATCC 29213 in the series with S. aureus ATCC 29213 of over 64 µM. In addition, the figures for the concentration for half-maximal inhibition (IC50) (in [3]; in [4]; in the series with H460 (lung carcinoma)) were 26.4 ± 4.8 µM, 36.3 ± 1.8 µM and over 100 µM, respectively. Also, the MIC P. aeruginosa ATCC 27853 in the series on P. aeruginosa ATCC 27853 is over 64 µM. The same compound registered an MIC A. baumannii ATCC 17978 with A. baumannii ATCC 17978 of over 64 µM. In addition, in the series on E. faecalis ATCC 29212, the “Selectivity of antibacterial activity, in words” value is listed as “selective antibacterial activity”. Also, the MIC E. faecalis ATCC 29212 in the series with E. faecalis ATCC 29212 amounted to 16 µM (≈ 4.53 µg/mL).

Compound `COc1ccc(C(=O)Nc2nc3cc(C#N)ccc3n2C)c(O)c1` [Compound 12, N-(5-cyano-1-methyl-1H-benzo[d]imidazol-2-yl)-2-hydroxy-4-methoxybenzamide] registered an MIC E. coli efflux del. against E. coli efflux del. of over 64 µM. Besides, the FRAP in series [1] stood at 592.86 ± 13.86. For the same compound, in the series with E. coli ATCC 25922, the MIC E. coli ATCC 25922 is over 64 µM. In series [2], the Solubility in water entry is on record as “low solubility in water”. The MIC S. aureus ATCC 29213 in the series with S. aureus ATCC 29213 is over 64 µM. Further, the IC50 (as a rule, the concentration needed to halve the response being measured) is 3.1 µM in [4] and over 100 µM in the series with H460 (lung carcinoma). Moreover, the MIC P. aeruginosa ATCC 27853 with P. aeruginosa ATCC 27853 was over 64 µM. The compound also yielded an MIC A. baumannii ATCC 17978 against A. baumannii ATCC 17978 of over 64 µM. Besides, the “Selectivity of antibacterial activity, in words” value in the series on E. faecalis ATCC 29212 is listed as “selective antibacterial activity”. This compound also displayed an MIC E. faecalis ATCC 29212 in the series on E. faecalis ATCC 29212 of 32 µM (≈ 10.3 µg/mL).
